Patent US20230365673A1, “MEANS FOR REDUCING RADIO- AND CHEMOTHERAPY RESISTANCE AND ADVERSE EFFECTS” (JOHANN WOLFGANG GOETHE-UNIVERSITÄT FRANKFURT AM MAIN, priority 2020, published 2023)

What was measured:
[1] = test system: APTKA conditioned fibroblasts; assay: Fibroblast morphology after fractionated irradiation (3×2 Gy); format: cell-based, mouse
Description: (A) Schematic illustration of APTKA organoids supernatant collection and treatment of colon fibroblasts from unchallenged wildtype C57BL/6 mice for 12 h followed by 3×2 Gy irradiation. Microscopic, proteomic & transcriptomic analysis were performed 72 h post first irradiation. (B) Microscopic captures of non-irradiated wildtype (WT) and APTKA conditioned fibroblasts. Remaining captures belong to irradiated fibroblasts: WT, IL-1α (1 μg/mL) stimulated WT, and APTKA conditioned media minus or plus anakinra (20 μg/mL) treated fibroblasts. Scale bars=200 μm. (C) Mass spectrometric analysis of matrisome profiles of 3×2 Gy irradiated (n=8) and non-irradiated (n=8) APTKA conditioned fibroblasts. […] (G) Immunoblot analysis of untreated and irradiated APTKA conditioned fibroblasts. Representative results from one experiment which has been independently repeated 2 times. (H) SA-ß gal staining of untreated and irradiated APTKA fibroblasts. Scale bars=100 μm. (I and J) p21 and pH2AX immunofluorescent staining of untreated and irradiated APTKA fibroblasts. Scale bars=[…]. Data are mean±SD. ** […] and *** p<0.001 by t-test. (K) Nitrite concentration determined by Griess assay in conditioned media from WT, APTK media, APTKA media, IL-1α (1 μg/mL) stimulated and APTKA plus anakinra (20 μg/mL) treated fibroblasts for 72 h (n=10 independent wells per group). […]

[2] = test system: primary mouse colon fibroblasts; assay: Inflammatory gene expression (RT-qPCR/RNAseq) in fibroblasts treated with APTKA conditioned medium; format: cell-based
Description: (A) Schematic illustration of APTKA or APTK organoids supernatant collection and treatment of primary mouse colon fibroblasts of unchallenged wildtype C57BL/6 mice. […] (F) Relative expression analysis by RT-qPCR of inflammatory genes in untreated wildtype and APTKA conditioned medium treated fibroblasts in the presence of IKKß inhibitor ML120B (30 μM) and p38 MAPK inhibitor SB203580 (10 μM) for 24 h (n=4 independent wells per group). Data are mean±SD. p<0.05 by one-way ANOVA followed by Tukey's multiple comparisons test. Representative results from one experiment which has been independently repeated 3 times. (G and H) RNA sequencing analysis of APTKA (n=3) and APTK (n=3) organoids: (G) heat map analysis; (H) differentially expressed cytokines in APTKA (Log 2 fold change≤−1) compared to APTK organoids (log 2 fold Change≥1). p-value<0.05. (I) RT-qPCR analysis of inflammatory genes in APTKA conditioned fibroblasts treated with control IgG, α-IL-1α, α-IL-33, α-TNF-α, α-BAFF or α-CXCL16 neutralizing antibodies (2 μg/mL each) for 24 h (n=4 independent wells per group). Data are mean±SD. **** p<0.0001 by one-way ANOVA followed by Tukey's multiple comparisons test. Experiment performed twice. (J) RNA expression profiles of inflammatory genes in APTKA conditioned fibroblasts stimulated for 24 h then subjected to anakinra (10 μg/mL), APTKA fresh or regular medium treatments for another 24 h (n=4 independent wells per condition). Data are mean±SD; p<0.05 by one-way ANOVA followed by Tukey's multiple comparisons test. Representative results from one experiment which has been independently repeated 2 times.
To examine whether APTK and APTKA tumour organoids differentially affect surrounding fibroblasts in tumours directly in a paracrine manner, supernatants were collected from both tumour organoid lines and treated primary intestinal fibroblasts of unchallenged wildtype mice for 24 hours with the two different tumour-conditioned media ex vivo (FIG. 3A). RNAseq analysis confirmed distinct gene expression patterns in fibroblasts exposed to the two organoid supernatants (FIG. 3B).
The inventors then aimed to identify the upstream factors secreted by APTKA organoids that were responsible for activating NF-κB and p38 in fibroblasts. To this end RNAseq analysis of APTK and APTKA tumour organoids were performed and identified several differentially expressed genes encoding cytokines (FIG. 3G, H). Using neutralizing antibodies, NF-κB and p38 inducing cytokines TNFα, IL-1α, IL-33, BAFF or CXCL16 were blocked in APTKA supernatants and expression of Cxcl1, Cxcl2, Cxcl5 and Ilia as inflammatory marker genes in fibroblasts was examined.
To do so, fibroblasts were stimulated for 24 hours with APTKA conditioned medium before adding anakinra, adding fresh APTKA medium or changing medium to regular medium.

Row | Substance | APTKA-induced elongated, spindle like morphology after irradiation ([1]; wildtype fibroblasts, APTKA conditioned medium plus anakinra 20 μg/mL) | expression of Cxcl1, Cxcl5 and Mmp13 in already polarized fibroblasts ([2]; 24 h APTKA conditioned medium, then anakinra 10 μg/mL for another 24 h) | upregulation of pro-inflammatory genes in fibroblasts ([2]; APTKA conditioned medium plus anakinra, data not shown) | fibroblast morphology after irradiation ([1]; recombinant IL-1α 1 μg/mL alone) | transcriptomic profile induced in fibroblasts ([2]; recombinant IL-1α alone, compared with APTKA supernatant, data not shown)
1 | anakinra: Kineret®, an interleukin-1 receptor antagonist | prevented the APTKA-induced phenotype | completely reverted expression of these genes | prevented upregulation of pro-inflammatory genes | – | –
2 | recombinant IL-1α: recombinant cytokine used to stimulate fibroblasts | – | – | – | sufficient to cause a comparable morphology after irradiation | sufficed to induce a similar transcriptomic profile as APTKA supernatant
